Source: patent US20240239861A1, “GLUCAGON-RECEPTOR SELECTIVE POLYPEPTIDES AND METHODS OF USE THEREOF” (i2O Therapeutics, Inc., priority 2016, published 2024)
Read-outs that look alike come from different tables or passages of the source. *1 amine or outer side, *2 acyl side, *3 side chain or, on linkers, in order; H or OH if unused. Where a SMILES comes first, the peptide text is derived from it. Side-chain parts run from the residue outwards. [ ]: non-standard residue; d: D form. The star is where a group is joined. C18 diacid = O=C(O)CCCCCCCCCCCCCCCCC(=O)*; γGlu = O=C(O)[C@H](CCC(=O)[*:2])N[*:1]; Palmitoyl = CCCCCCCCCCCCCCCC(=O)*; AEEA = NCCOCCOCC(=O)O; Aib = CC(C)(N)C(=O)O

How the values were obtained:
[1] = molecular target: human GLP-1R (Homo sapiens, UniProt P43220); assay: Peptide-receptor mediated cAMP accumulation (LANCE Ultra cAMP) in CHO-K1 cells transfected with human GLP-1R; assay type: cell-based
human GLP-1R, sequence (P43220 24-463): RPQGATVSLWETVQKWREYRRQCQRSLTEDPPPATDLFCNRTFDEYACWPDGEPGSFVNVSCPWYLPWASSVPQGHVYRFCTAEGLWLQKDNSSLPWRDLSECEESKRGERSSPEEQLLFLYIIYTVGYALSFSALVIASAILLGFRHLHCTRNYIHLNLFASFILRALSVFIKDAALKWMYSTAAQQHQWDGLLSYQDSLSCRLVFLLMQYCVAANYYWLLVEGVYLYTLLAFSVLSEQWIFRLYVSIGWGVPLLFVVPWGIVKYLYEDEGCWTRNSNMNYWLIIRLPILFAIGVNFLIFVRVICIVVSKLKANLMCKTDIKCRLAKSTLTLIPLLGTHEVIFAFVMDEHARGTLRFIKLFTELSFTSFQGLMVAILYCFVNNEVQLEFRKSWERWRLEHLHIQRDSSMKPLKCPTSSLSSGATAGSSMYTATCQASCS

[2] = molecular target: human GCGR (Homo sapiens, UniProt P47871); assay: Peptide-receptor mediated cAMP accumulation (LANCE Ultra cAMP) in CHO-K1 cells transfected with human GCGR; assay type: cell-based
human GCGR, sequence (P47871 26-477): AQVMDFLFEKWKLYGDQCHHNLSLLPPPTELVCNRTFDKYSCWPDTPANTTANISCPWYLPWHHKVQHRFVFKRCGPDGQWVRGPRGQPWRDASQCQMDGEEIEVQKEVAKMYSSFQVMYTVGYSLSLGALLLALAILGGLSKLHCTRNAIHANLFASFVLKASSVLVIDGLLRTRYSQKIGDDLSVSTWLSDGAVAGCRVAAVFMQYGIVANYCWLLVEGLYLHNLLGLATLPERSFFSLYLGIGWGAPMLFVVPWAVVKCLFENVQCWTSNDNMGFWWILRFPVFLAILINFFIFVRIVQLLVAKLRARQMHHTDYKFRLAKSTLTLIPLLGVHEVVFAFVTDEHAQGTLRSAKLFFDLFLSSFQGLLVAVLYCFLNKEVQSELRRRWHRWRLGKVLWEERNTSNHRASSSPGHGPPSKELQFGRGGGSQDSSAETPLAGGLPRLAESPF

[3] = Table 7, GLP-1R, read-out: GLP-1R pEC50 (converted)
[4] = read-out: GluR pEC50 (converted)
[5] = hGLP1 pEC50 (cAMP mean (n = 3): 11 point curve starting at 1 nM, Table 3)

Compound	EC50 [1, 3] [nM]	EC50 [2, 4] [nM]	EC50 [1, 5] [nM]	EC50 ([2]; Table 3) [nM]
CC(C)C[C@H](NC(=O)[C@H](Cc1ccc(O)cc1)NC(=O)[C@H](CCCCN)NC(=O)[C@H](CO)NC(=O)[C@H](CCCCNC(=O)COCCOCCNC(=O)COCCOCCNC(=O)CC[C@H](NC(=O)CCCCCCCCCCCCCCCCC(=O)O)C(=O)O)NC(=O)[C@H](CC(=O)O)NC(=O)[C@H](CO)NC(=O)[C@@H](NC(=O)[C@H](Cc1ccccc1)NC(=O)[C@@H](NC(=O)CNC(=O)[C@H](Cc1c[nH]cn1)NC(=O)[C@H](CO)NC(=O)[C@@H](N)Cc1ccc(O)cc1)[C@@H](C)O)[C@@H](C)O)C(=O)N[C@@H](CC(=O)O)C(=O)NC(C)(C)C(=O)N[C@@H](CCCCN)C(=O)N[C@@H](CO)C(=O)N[C@@H](C)C(=O)N[C@@H](CCC(N)=O)C(=O)N[C@@H](CCC(=O)O)C(=O)N[C@@H](Cc1ccccc1)C(=O)N[C@H](C(=O)NC(C)(C)C(=O)N[C@@H](Cc1c[nH]c2ccccc12)C(=O)N[C@@H](CC(C)C)C(=O)N[C@@H](CCC(=O)O)C(=O)N[C@@H](CC(=O)O)C(=O)N[C@@H](CCC(=O)O)C(=O)N1CCC[C@H]1C(=O)N[C@@H](CO)C(=O)N[C@@H](CO)C(=O)NCC(=O)N[C@@H](C)C(=O)N1CCC[C@H]1C(=O)N1CCC[C@H]1C(=O)N1CCC[C@H]1C(=O)N[C@@H](CO)C(=O)O)C(C)C [Compound B16] (H-YSHGTFTSDK([AEEA-AEEA-γGlu-C18 diacid])SKYLD[Aib]KSAQEFV[Aib]WLEDEPSSGAPPPS-OH)	5.01	3.16		
CC(C)C[C@H](NC(=O)[C@H](Cc1ccc(O)cc1)NC(=O)[C@H](CCCCN)NC(=O)[C@H](CO)NC(=O)[C@H](Cc1ccc(O)cc1)NC(=O)[C@H](CC(=O)O)NC(=O)[C@H](CO)NC(=O)[C@@H](NC(=O)[C@H](Cc1ccccc1)NC(=O)[C@@H](NC(=O)CNC(=O)[C@H](Cc1c[nH]cn1)NC(=O)[C@H](CO)NC(=O)[C@@H](N)Cc1ccc(O)cc1)[C@@H](C)O)[C@@H](C)O)C(=O)N[C@@H](CC(=O)O)C(=O)NC(C)(C)C(=O)N[C@@H](CCCCN)C(=O)N[C@@H](CCCNC(=N)N)C(=O)N[C@@H](C)C(=O)N[C@@H](CCC(N)=O)C(=O)N[C@@H](CCC(=O)O)C(=O)N[C@@H](Cc1ccccc1)C(=O)N[C@H](C(=O)NC(C)(C)C(=O)N[C@@H](Cc1c[nH]c2ccccc12)C(=O)N[C@@H](CC(C)C)C(=O)N[C@@H](CCC(=O)O)C(=O)N[C@@H](CC(=O)O)C(=O)N[C@@H](CCC(=O)O)C(=O)N1CCC[C@H]1C(=O)N[C@@H](CCCCN)C(=O)N[C@@H](CO)C(=O)NCC(=O)N[C@@H](C)C(=O)N1CCC[C@H]1C(=O)N1CCC[C@H]1C(=O)N1CCC[C@H]1C(=O)N[C@@H](CO)C(=O)O)C(C)C [Compound A29] (H-YSHGTFTSDYSKYLD[Aib]KRAQEFV[Aib]WLEDEPKSGAPPPS-OH)			> 1	0.00794
CC(C)C[C@H](NC(=O)[C@H](Cc1c[nH]c2ccccc12)NC(=O)[C@H](CCCCN)NC(=O)[C@H](CO)NC(=O)[C@H](Cc1c[nH]cn1)NC(=O)[C@H](CC(=O)O)NC(=O)[C@H](CO)NC(=O)[C@@H](NC(=O)[C@H](Cc1ccccc1)NC(=O)[C@@H](NC(=O)CNC(=O)[C@H](Cc1c[nH]cn1)NC(=O)[C@H](CO)NC(=O)[C@@H](N)Cc1ccc(O)cc1)[C@@H](C)O)[C@@H](C)O)C(=O)N[C@@H](CC(=O)O)C(=O)NC(C)(C)C(=O)N[C@@H](CCCCN)C(=O)N[C@@H](CCCNC(=N)N)C(=O)N[C@@H](C)C(=O)N[C@@H](CCC(N)=O)C(=O)N[C@@H](CCC(=O)O)C(=O)N[C@@H](Cc1ccccc1)C(=O)N[C@H](C(=O)NC(C)(C)C(=O)N[C@@H](Cc1c[nH]c2ccccc12)C(=O)N[C@@H](CC(C)C)C(=O)N[C@@H](CCC(=O)O)C(=O)N[C@@H](CC(=O)O)C(=O)N[C@@H](CCC(=O)O)C(=O)N1CCC[C@H]1C(=O)N[C@@H](CO)C(=O)N[C@@H](CO)C(=O)NCC(=O)N[C@@H](C)C(=O)N1CCC[C@H]1C(=O)N1CCC[C@H]1C(=O)N1CCC[C@H]1C(=O)N[C@@H](CO)C(=O)O)C(C)C [Compound A33] (H-YSHGTFTSDHSKWLD[Aib]KRAQEFV[Aib]WLEDEPSSGAPPPS-OH; N-terminus assumed)			> 1	0.0126
CCCCCCCCCCCCCCCC(=O)N[C@@H](CCC(=O)NCCCC[C@H](NC(=O)[C@H](CC(=O)O)NC(=O)[C@H](CO)NC(=O)[C@@H](NC(=O)[C@H](Cc1ccccc1)NC(=O)[C@@H](NC(=O)CNC(=O)[C@H](Cc1c[nH]cn1)NC(=O)[C@H](CO)NC(=O)[C@@H](N)Cc1ccc(O)cc1)[C@@H](C)O)[C@@H](C)O)C(=O)N[C@@H](CO)C(=O)N[C@@H](CCCCN)C(=O)N[C@@H](Cc1ccc(O)cc1)C(=O)N[C@@H](CC(C)C)C(=O)N[C@@H](CC(=O)O)C(=O)NC(C)(C)C(=O)N[C@@H](CCCCN)C(=O)N[C@@H](Cc1ccc(O)cc1)C(=O)N[C@@H](C)C(=O)N[C@@H](CCC(N)=O)C(=O)N[C@@H](CCC(=O)O)C(=O)N[C@@H](Cc1ccccc1)C(=O)N[C@H](C(=O)NC(C)(C)C(=O)N[C@@H](Cc1c[nH]c2ccccc12)C(=O)N[C@@H](CC(C)C)C(=O)N[C@@H](CCC(=O)O)C(=O)N[C@@H](CC(=O)O)C(=O)N[C@@H](CCC(=O)O)C(=O)N1CCC[C@H]1C(=O)N[C@@H](CO)C(=O)N[C@@H](CO)C(=O)NCC(=O)N[C@@H](C)C(=O)N1CCC[C@H]1C(=O)N1CCC[C@H]1C(=O)N1CCC[C@H]1C(=O)N[C@@H](CO)C(=O)O)C(C)C)C(=O)O [Compound B4] (H-YSHGTFTSDK([γGlu-Palmitoyl])SKYLD[Aib]KYAQEFV[Aib]WLEDEPSSGAPPPS-OH)	> 1000	0.794		
CCCCCCCCCCCCCCCC(=O)N[C@@H](CCC(=O)NCCCC[C@H](NC(=O)[C@H](CC(=O)O)NC(=O)[C@H](CO)NC(=O)[C@@H](NC(=O)[C@H](Cc1ccccc1)NC(=O)[C@@H](NC(=O)CNC(=O)[C@H](CCC(N)=O)NC(=O)[C@H](CO)NC(=O)[C@@H](N)Cc1c[nH]c2ccccc12)[C@@H](C)O)[C@@H](C)O)C(=O)N[C@@H](CO)C(=O)N[C@@H](CCCCN)C(=O)N[C@@H](Cc1ccc(O)cc1)C(=O)N[C@@H](CC(C)C)C(=O)N[C@@H](CC(=O)O)C(=O)NC(C)(C)C(=O)N[C@@H](CCCCN)C(=O)N[C@@H](CCCNC(=N)N)C(=O)N[C@@H](C)C(=O)N[C@@H](CCC(N)=O)C(=O)N[C@@H](CCC(=O)O)C(=O)N[C@@H](Cc1ccccc1)C(=O)N[C@H](C(=O)NC(C)(C)C(=O)N[C@@H](Cc1c[nH]c2ccccc12)C(=O)N[C@@H](CC(C)C)C(=O)N[C@@H](CCC(=O)O)C(=O)N[C@@H](CC(=O)O)C(=O)N[C@@H](CCC(=O)O)C(=O)N1CCC[C@H]1C(=O)N[C@@H](CO)C(=O)N[C@@H](CO)C(=O)NCC(=O)N[C@@H](C)C(=O)N1CCC[C@H]1C(=O)N1CCC[C@H]1C(=O)N1CCC[C@H]1C(=O)N[C@@H](CO)C(=O)O)C(C)C)C(=O)O [Compound B20] (H-WSQGTFTSDK([γGlu-Palmitoyl])SKYLD[Aib]KRAQEFV[Aib]WLEDEPSSGAPPPS-OH)	316	0.00794		
CC(C)C[C@H](NC(=O)[C@H](Cc1ccc(O)cc1)NC(=O)[C@H](CCCCN)NC(=O)[C@H](CO)NC(=O)[C@H](Cc1ccc(O)cc1)NC(=O)[C@H](CC(=O)O)NC(=O)[C@H](CO)NC(=O)[C@@H](NC(=O)[C@H](Cc1ccccc1)NC(=O)[C@@H](NC(=O)CNC(=O)[C@H](CCC(N)=O)NC(=O)[C@H](CO)NC(=O)[C@@H](N)Cc1c[nH]c2ccccc12)[C@@H](C)O)[C@@H](C)O)C(=O)N[C@@H](CC(=O)O)C(=O)NC(C)(C)C(=O)N[C@@H](CCCCN)C(=O)N[C@@H](C)C(=O)N[C@@H](C)C(=O)N[C@@H](CCC(N)=O)C(=O)N[C@@H](CCC(=O)O)C(=O)N[C@@H](Cc1ccccc1)C(=O)N[C@H](C(=O)NC(C)(C)C(=O)N[C@@H](Cc1c[nH]c2ccccc12)C(=O)N[C@@H](CC(C)C)C(=O)N[C@@H](CCC(=O)O)C(=O)N[C@@H](CC(=O)O)C(=O)N[C@@H](CCC(=O)O)C(=O)N1CCC[C@H]1C(=O)N[C@@H](CO)C(=O)N[C@@H](CO)C(=O)NCC(=O)N[C@@H](C)C(=O)N1CCC[C@H]1C(=O)N1CCC[C@H]1C(=O)N1CCC[C@H]1C(=O)N[C@@H](CO)C(=O)O)C(C)C [Compound A92] (H-WSQGTFTSDYSKYLD[Aib]KAAQEFV[Aib]WLEDEPSSGAPPPS-OH; N-terminus assumed)			> 1	0.02
CC(C)C[C@H](NC(=O)[C@H](Cc1c[nH]c2ccccc12)NC(=O)[C@H](CCCCNC(=O)COCCOCCNC(=O)COCCOCCNC(=O)CC[C@H](NC(=O)CCCCCCCCCCCCCCCCC(=O)O)C(=O)O)NC(=O)[C@@H](NC(=O)[C@H](Cc1ccccc1)NC(=O)[C@H](CCC(=O)O)NC(=O)[C@H](CCC(N)=O)NC(=O)[C@H](C)NC(=O)[C@H](Cc1ccc(O)cc1)NC(=O)[C@H](CCCCN)NC(=O)C(C)(C)NC(=O)[C@H](CC(=O)O)NC(=O)[C@H](CC(C)C)NC(=O)[C@H](Cc1ccc(O)cc1)NC(=O)[C@H](CCCCN)NC(=O)[C@H](CO)NC(=O)[C@H](Cc1ccc(O)cc1)NC(=O)[C@H](CC(=O)O)NC(=O)[C@H](CO)NC(=O)[C@@H](NC(=O)[C@H](Cc1ccccc1)NC(=O)[C@@H](NC(=O)CNC(=O)[C@H](Cc1c[nH]cn1)NC(=O)[C@H](CO)NC(=O)[C@@H](N)Cc1ccc(O)cc1)[C@@H](C)O)[C@@H](C)O)C(C)C)C(=O)N[C@@H](CCC(=O)O)C(=O)N[C@@H](CC(=O)O)C(=O)N[C@@H](CCC(=O)O)C(=O)N1CCC[C@H]1C(=O)N[C@@H](CO)C(=O)N[C@@H](CO)C(=O)NCC(=O)N[C@@H](C)C(=O)N1CCC[C@H]1C(=O)N1CCC[C@H]1C(=O)N1CCC[C@H]1C(=O)N[C@@H](CO)C(=O)O [Compound B6]	> 1000	0.0794		
